Calls of active or inactive are those of the source. Numbered stars: 1 amine (or outer) side, 2 acyl side, 3 side chain; on linkers, the order of the positions; unused ones are H or OH. Square brackets hold non-standard residues; d marks the D form. Peptide text beside a SMILES is read from it. X1 = CN1CCC(COc2ccc3oc4c(N(CC(=O)[*:2])[*:1])c5ccccc5nc4c3c2)CC1
Key:
Homo sapiens [1] = species: Homo sapiens; assay: Binding affinity to biotin-labeled human wild type internal ribosome entry site A RNA G-quadruplex by SPR analysis
[2] = Binding affinity to biotin-labeled DNA hairpin (unknown origin) by SPR analysis
Homo sapiens [3] = species: Homo sapiens; assay: Binding affinity to biotin-labeled human 5'-UGAUGAGUGUGAGGAGGA-3' RNA G-quadruplex by SPR analysis
Homo sapiens [4] = species: Homo sapiens; assay: Destabilization of human 5'-UGAAGAGUGUGAGUAGUA-3' RNA expressed in MCF7 cells assessed as down regulation of VEGF-A translation at up to 1.5 uM after 24 hrs by dual-luciferase reporter gene assay; format: cell-based
Homo sapiens [5] = species: Homo sapiens; assay: Destabilization of human wild type internal ribosome entry site A RNA G-quadruplex assessed as melting temperature at 5 uM by CD spectra method (reference value: 80.9 +/- 0.8 degreeC)
Homo sapiens [6] = species: Homo sapiens; assay: Destabilization of human wild type internal ribosome entry site A RNA G-quadruplex expressed in MCF7 cells assessed as down regulation of VEGF-A translation up to 0.5 uM after 24 hrs by dual-luciferase reporter gene assay relative to control; format: cell-based

Structure (SMILES)	Activity (Homo sapiens [1])	Activity [2]	Activity (Homo sapiens [3])	Tm (Homo sapiens [5]) [°C]	Activity (Homo sapiens [4])	Activity (Homo sapiens [6])
CN(C)CCCNc1c2ccccc2nc2c1oc1cc(OCCCN(C)C)ccc12	Active	Active	Active	–	–	–
CN1CCC(COc2ccc3oc4c(NCC(=O)NCC(=O)NC(CCCNC(=N)N)C(=O)NC(CO)C(=O)O)c5ccccc5nc4c3c2)CC1 (stereo not drawn)	Active	Active	Active	–	–	–
C[n+]1c2ccccc2c(NCCN2CCCCC2)c2oc3ccc(OCC(=O)NCCN4CCCCC4)cc3c21	Active	Active	Active	–	–	–
C[n+]1c2ccccc2c(NCCCN2CCOCC2)c2oc3ccc(OCC[N+](C)(C)C)cc3c21	Active	Active	Active	–	–	–
COc1ccc2cc3[n+](cc2c1NCCc1ccccc1)CCc1cc2c(cc1-3)OCO2	Active	Active	Active	–	–	–
C[n+]1c2ccccc2c(NCCN2CCCCC2)c2oc3ccc(OCC[N+]4(C)CCCCC4)cc3c21	Active	Active	Active	–	–	–
CN(C)CCNc1c2ccccc2[n+](C)c2c1oc1ccc(OCC[N+]3(C)CCOCC3)cc12	Active	Active	Active	–	–	–
CCN(CC)CCNc1c2ccccc2[n+](C)c2c1[nH]c1ccccc12	Active	Active	Active	–	–	–
CN(C)CCCNc1c2ccccc2[n+](C)c2c1[nH]c1ccc(F)cc12	Active	Active	Active	–	–	–
C[n+]1c2ccccc2c(NCCN2CCOCC2)c2oc3ccc(OCC4CC[N+](C)(C)CC4)cc3c21	Active	Active	Active	–	–	–
CN(C)CCCNc1c2ccccc2[n+](C)c2c1oc1ccc(OCC3CC[N+](C)(C)CC3)cc12	Active	Active	Active	–	–	–
COc1ccc2cc3[n+](cc2c1NCCCN(C)C)CCc1cc2c(cc1-3)OCO2	Active	Active	Active	–	–	–
CCN(CC)CCCNc1c2ccccc2[n+](C)c2c1[nH]c1ccccc12	Active	Active	Active	–	–	–
C[n+]1c2ccccc2c(NCCCN2CCOCC2)c2oc3ccc(OCC[N+]4(C)CCOCC4)cc3c21	Active	Active	Active	–	–	–
CN(C)CCCNc1c2ccccc2[n+](C)c2c1oc1ccc(OCC[N+]3(C)CCOCC3)cc12	Active	Active	Active	–	–	–
COc1ccc2cc3[n+](cc2c1NCCCN1CCCCC1)CCc1cc2c(cc1-3)OCO2	Active	Active	Active	–	–	–
NC(=O)c1ccccc1NC(=O)c1ccccc1[N+](=O)[O-]	–	–	–	–	inactive	–
COc1ccc2cc3[n+](cc2c1NCCCN1CCOCC1)CCc1cc2c(cc1-3)OCO2	Active	Active	Active	–	–	–

Structure (SMILES)	Activity (Homo sapiens [1])	Activity [2]	Activity (Homo sapiens [3])	Tm (Homo sapiens [5]) [°C]	Activity (Homo sapiens [4])	Activity (Homo sapiens [6])
CN(C)CCCNC1C2=Nc3ccccc3C2=Nc2ccccc21 (stereo not drawn)	–	–	–	> 81	–	inactive
CN1CCC(COc2ccc3oc4c(NCC(=O)NCC(=O)NC(CCCNC(=N)N)C(=O)NC(CC(=O)O)C(=O)O)c5ccccc5nc4c3c2)CC1 (stereo not drawn)	Active	Active	Active	–	–	–
C[n+]1c2ccccc2c(NCC(=O)NCC(=O)NC(Cc2ccccc2)C(=O)O)c2oc3ccccc3c21 (stereo not drawn)	Active	Active	Active	–	–	–
C[n+]1c2ccccc2c(NCCN2CCOCC2)c2oc3ccc(OCC[N+](C)(C)C)cc3c21	Active	Active	Active	–	–	–
CN(C)CCNc1c2ccccc2[n+](C)c2c1oc1ccc(OCC[N+]3(C)CCCCC3)cc12	Active	Active	Active	–	–	–
C[n+]1c2ccccc2c(NCCN2CCOCC2)c2oc3ccc(OCC[N+]4(C)CCOCC4)cc3c21	Active	Active	Active	–	–	–
C[n+]1c2ccccc2c(NCCCN2CCOCC2)c2oc3ccc(OCC4CC[N+](C)(C)CC4)cc3c21	Active	Active	Active	–	–	–
COc1ccc2cc3[n+](cc2c1NCCCN1CCCC1)CCc1cc2c(cc1-3)OCO2	Active	Active	Active	–	–	–
CN(C)CCNc1c2ccccc2[n+](C)c2c1oc1ccc(OCC3CC[N+](C)(C)CC3)cc12	Active	Active	Active	–	–	–
CN1CCC(COc2ccc3oc4c(NCC(=O)NCC(=O)NC(CCCNC(=N)N)C(=O)NC(CCCNC(=N)N)C(=O)NCC(=O)O)c5ccccc5nc4c3c2)CC1 (stereo not drawn) (H-[X1]GRRG-OH; configuration not given here)	Active	Active	Active	–	–	–
CN(C)CCNc1c2ccccc2[n+](C)c2c1[nH]c1ccc(F)cc12	Active	Active	Active	–	–	–
C[n+]1c2ccccc2c(NCC(=O)NCC(=O)NCC(=O)O)c2oc3ccccc3c21	Active	Active	Active	–	–	–
CN(C)CCCNC(=O)COc1ccc2oc3c(NCCCN(C)C)c4ccccc4[n+](C)c3c2c1	Active	Active	Active	–	–	–
C[n+]1c2ccccc2c(NCC(=O)NCC(=O)NC(CCCNC(=N)N)C(=O)O)c2oc3ccccc3c21 (stereo not drawn)	Active	Active	Active	–	–	–
C[n+]1c2ccccc2c(NCCN2CCCCC2)c2oc3ccc(OCC[N+](C)(C)C)cc3c21	Active	Active	Active	–	–	–
CN(C)CCNc1c2ccccc2[n+](C)c2c1oc1ccccc12	Active	Active	Active	–	–	–
CN(C)CCCNc1c2ccccc2[n+](C)c2c1oc1ccc(OCC[N+]3(C)CCCCC3)cc12	Active	Active	Active	–	–	–

Second part, led by results:

Activity (Homo sapiens [1])	Activity [2]	Activity (Homo sapiens [3])	Tm (Homo sapiens [5]) [°C]	Structure (SMILES)	Activity (Homo sapiens [4])	Activity (Homo sapiens [6])
Active	Active	Active	–	CCN(CC)CCCNc1c2ccccc2[n+](C)c2c1oc1ccc(OCC[N+](C)(C)C)cc12	–	–
Active	Active	Active	–	CN(C)CCNc1c2ccccc2[n+](C)c2c1oc1ccc(OCC[N+](C)(C)C)cc12	–	–
Active	Active	Active	–	CCN(CC)CCNc1c2ccccc2[n+](C)c2c1oc1ccc(OCC[N+]3(C)CCOCC3)cc12	–	–
Active	Active	Active	–	CCN(CC)CCNc1c2ccccc2[n+](C)c2c1oc1ccc(OCC[N+]3(C)CCCCC3)cc12	–	–
Active	Active	Active	–	C[n+]1c2ccccc2c(NCCCN2CCOCC2)c2oc3ccc(OCCC[N+](C)(C)C)cc3c21	–	–
Active	Active	Active	–	C[n+]1c2ccccc2c(NCCN2CCOCC2)c2oc3ccc(OCCC[N+](C)(C)C)cc3c21	–	–
Active	Active	Active	–	CCN(CC)CCCNc1c2ccccc2[n+](C)c2c1oc1ccc(OCC3CC[N+](C)(C)CC3)cc12	–	–
Active	Active	Active	–	CCN(CC)CCCNc1c2ccccc2[n+](C)c2c1oc1ccc(OCC[N+]3(C)CCCCC3)cc12	–	–
Active	Active	Active	–	CCN(CC)CCCNc1c2ccccc2[n+](C)c2c1oc1ccc(OCC(=O)NCCCN(C)C)cc12	–	–
Active	Active	Active	–	CN(C)CCCNc1c2ccccc2[n+](C)c2c1oc1ccc(OCCC[N+](C)(C)C)cc12	–	–
Active	Active	Active	–	CN(C)CCNc1c2ccccc2[n+](C)c2c1oc1ccc(OCCC[N+](C)(C)C)cc12	–	–
Active	Active	Active	–	CCN(CC)CCNC(=O)COc1ccc2oc3c(NCCN(CC)CC)c4ccccc4[n+](C)c3c2c1	–	–
Active	Active	Active	–	CCN(CC)CCCNc1c2ccccc2[n+](C)c2c1oc1ccc(OCCC[N+](C)(C)C)cc12	–	–
Active	Active	Active	–	CCN(CC)CCNc1c2ccccc2[n+](C)c2c1oc1ccc(OCCC[N+](C)(C)C)cc12	–	–
Active	Active	Active	–	CCN(CC)CCNc1c2ccccc2[n+](C)c2c1oc1ccc(OCC[N+](C)(C)C)cc12	–	–
Active	Active	Active	–	CCN(CC)CCNc1c2ccccc2[n+](C)c2c1oc1ccc(OCC3CC[N+](C)(C)CC3)cc12	–	–
Active	Active	Active	–	CN(C)CCCNc1c2ccccc2[n+](C)c2c1oc1ccc(OCC[N+](C)(C)C)cc12	–	–

From ChEMBL document CHEMBL4014333, “Discovery of Small Molecules for Repressing Cap-Independent Translation of Human Vascular Endothelial Growth Factor (hVEGF) as Novel Antitumor Agents” (J Med Chem, 2017)
